Results published in the NIST ThermoML archive (doi:10.1016/j.jct.2018.08.013).
Several values for one entry are separate records, joined by “and”; a condition that tells them apart may be missing. Identical values can stand only once.

Key:
[1] = xn = mol fraction of the nth substance listed; conditions: 298 K; 100 kPa; Crystal of intercomponent compound 1; X-ray diffraction; x2 = 0.477
[2] = specific heat capacity at constant pressure; xn = mol fraction of the nth substance listed; conditions: 100 kPa, Crystal of intercomponent compound 1, relaxation calorimetry, x2 = 0.477

[Se] [selenium] + [In]
Conditions	mass density [kg/m3]
[1]	5546

[2]
Conditions	specific heat capacity
10.11 K	10.21 J/K/kg and 10.22 J/K/kg and 10.23 J/K/kg
12.12 K	16.85 J/K/kg and 16.83 J/K/kg
12.14 K	16.97 J/K/kg
14.13 K	24.44 J/K/kg
14.15 K	24.49 J/K/kg
16.15 K	32.56 J/K/kg and 32.49 J/K/kg
16.16 K	32.62 J/K/kg
18.17 K	40.89 J/K/kg and 40.88 J/K/kg
18.18 K	40.87 J/K/kg
20.18 K	49.24 J/K/kg
20.19 K	49.1 J/K/kg and 49.16 J/K/kg
22.2 K	57.18 J/K/kg and 57.13 J/K/kg
22.21 K	56.97 J/K/kg
24.22 K	65.02 J/K/kg and 64.97 J/K/kg
24.23 K	64.87 J/K/kg
26.24 K	72.45 J/K/kg and 72.56 J/K/kg
28.25 K	79.57 J/K/kg
30.27 K	86.33 J/K/kg and 86.39 J/K/kg
32.78 K	94.54 J/K/kg
32.79 K	94.59 J/K/kg
35.31 K	102.49 J/K/kg and 102.64 J/K/kg
37.81 K	109.66 J/K/kg
37.82 K	109.87 J/K/kg
40.34 K	117.25 J/K/kg
40.35 K	116.73 J/K/kg and 116.68 J/K/kg
42.86 K	123.23 J/K/kg
42.87 K	122.77 J/K/kg
45.38 K	129.63 J/K/kg
45.39 K	129.32 J/K/kg
45.4 K	129.27 J/K/kg
47.9 K	135.36 J/K/kg
47.91 K	134.84 J/K/kg
50.41 K	141.5 J/K/kg
50.42 K	140.88 J/K/kg
50.44 K	140.73 J/K/kg
52.93 K	146.09 J/K/kg
52.95 K	145.42 J/K/kg
55.43 K	151.41 J/K/kg
55.46 K	150.74 J/K/kg
55.48 K	150.63 J/K/kg
57.97 K	155.28 J/K/kg
57.99 K	154.81 J/K/kg
60.46 K	160.13 J/K/kg
60.49 K	159.41 J/K/kg
60.52 K	159.25 J/K/kg
63.01 K	163.79 J/K/kg
63.04 K	162.97 J/K/kg
65.49 K	168.85 J/K/kg
65.53 K	167.77 J/K/kg
65.57 K	167.3 J/K/kg
68.05 K	171.53 J/K/kg
68.08 K	170.97 J/K/kg
70.52 K	176.23 J/K/kg
70.56 K	175.25 J/K/kg
70.63 K	173.96 J/K/kg
73.05 K	178.14 J/K/kg
73.09 K	177.31 J/K/kg
75.56 K	182.68 J/K/kg
75.6 K	181.49 J/K/kg
75.67 K	180.82 J/K/kg
78.13 K	184.75 J/K/kg
78.16 K	183.82 J/K/kg
80.57 K	189.39 J/K/kg
80.65 K	187.95 J/K/kg
80.71 K	187.02 J/K/kg
83.17 K	190.47 J/K/kg
83.2 K	189.7 J/K/kg
85.61 K	194.76 J/K/kg
85.69 K	193.42 J/K/kg
85.74 K	192.69 J/K/kg
88.19 K	195.84 J/K/kg
88.24 K	194.76 J/K/kg
90.63 K	200.23 J/K/kg
90.71 K	198.78 J/K/kg
90.78 K	197.54 J/K/kg
93.18 K	200.64 J/K/kg
93.24 K	199.45 J/K/kg
95.65 K	204.05 J/K/kg
95.74 K	202.39 J/K/kg
95.83 K	201.41 J/K/kg
98.2 K	204.15 J/K/kg
98.3 K	202.34 J/K/kg
100.79 K	205.8 J/K/kg
100.83 K	205.34 J/K/kg
100.91 K	207.4 J/K/kg
101.79 K	206.37 J/K/kg
101.88 K	205.18 J/K/kg
105.84 K	208.74 J/K/kg
105.86 K	208.07 J/K/kg
109.83 K	211.27 J/K/kg
109.93 K	209.1 J/K/kg
113.88 K	213.59 J/K/kg
113.93 K	212.1 J/K/kg
